Measured values taken from ChEMBL document CHEMBL1201862, “PubChem BioAssay data set” (2004).
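These data come from cells grown in 96-well plates and exposed to compound for 48 hours at five concentrations. The concentration for 50% growth inhibition is given as GI50.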 The source made the active and inactive calls. Cut-off read from the data, not from the text of the source: active = GI50 up to about 1.1 µM and inactive = higher. Where a SMILES comes first, the peptide text is derived from it. [ ]: non-standard residue; d: D form. The star is where a group is joined. Hyp = O=C(O)[CH]1C[CH](O)CN1; Cbz = O=C(OCc1ccccc1)*

Legend:
Assay in all cases: NCI-60 cell line screen, 48 h
KM12 = tested on: KM12
Malme-3M = tested on: Malme-3M
T47D = tested on: T47D
UACC-62 = tested on: UACC-62
COLO 205 = tested on: COLO 205
IGROV-1 = tested on: IGROV-1
NCI-H23 = tested on: NCI-H23
SNB-19 = tested on: SNB-19
DU-145 = tested on: DU-145
PC-3 = tested on: PC-3
SK-MEL-2 = tested on: SK-MEL-2
SK-OV-3 = tested on: SK-OV-3
M14 = tested on: M14
Hs-578T = tested on: Hs-578T
LOX IMVI = tested on: LOX IMVI
MDA-N = tested on: MDA-N
NCI-H460 = tested on: NCI-H460
MDA-MB-231 = tested on: MDA-MB-231
SK-MEL-5 = tested on: SK-MEL-5
SF-268 = tested on: SF-268

Measured: GI50

CN1CCN(c2ccncc2S(=O)(=O)N2CCN(C)CC2)CC1
inactive: KM12 > 100 µM | Malme-3M > 100 µM | T47D > 100 µM | UACC-62 > 100 µM | COLO 205 > 100 µM | IGROV-1 > 100 µM | NCI-H23 > 100 µM | SNB-19 > 100 µM | DU-145 > 100 µM | PC-3 > 100 µM | SK-MEL-2 > 100 µM | SK-OV-3 > 100 µM | M14 > 100 µM | Hs-578T > 100 µM | LOX IMVI > 100 µM | MDA-N > 100 µM | NCI-H460 > 100 µM | MDA-MB-231 > 100 µM | SK-MEL-5 > 100 µM | SF-268 > 100 µM

NC(=O)CNC(=O)C1CC(O)CN1C(=O)C1CCCN1C(=O)OCc1ccccc1 (stereo not drawn) (Cbz-Pro-[Hyp]-Gly-NH2; configuration not given here)
inactive: KM12 > 100 µM | Malme-3M > 100 µM | T47D > 100 µM | UACC-62 > 100 µM | COLO 205 > 100 µM | IGROV-1 > 100 µM | NCI-H23 > 100 µM | SNB-19 > 100 µM | DU-145 > 100 µM | PC-3 > 100 µM | SK-MEL-2 > 100 µM | SK-OV-3 > 100 µM | M14 > 100 µM | Hs-578T > 100 µM | LOX IMVI > 100 µM | MDA-N > 100 µM | NCI-H460 > 100 µM | MDA-MB-231 > 100 µM | SK-MEL-5 > 100 µM | SF-268 > 100 µM

CCOC(=O)c1sc2nc(SC)nc3c2c1NCN3c1ccc(F)c(F)c1
inactive: KM12 10.7 µM | Malme-3M 7.59 µM | T47D 29.4 µM | UACC-62 > 52.4 µM | COLO 205 > 100 µM | IGROV-1 43.1 µM | NCI-H23 14.6 µM | SNB-19 34.8 µM | DU-145 8.43 µM | PC-3 16.4 µM | SK-MEL-2 > 71 µM | SK-OV-3 19.2 µM | M14 31.4 µM | Hs-578T 4.28 µM | LOX IMVI 6.59 µM | MDA-N 18.3 µM | NCI-H460 8.63 µM | MDA-MB-231 13 µM | SK-MEL-5 > 71.9 µM | SF-268 9.84 µM

Nc1c(C(=O)O)c2ccc([N+](=O)[O-])cc2c(=O)n1-c1nc2ccccc2s1
inactive: KM12 > 100 µM | Malme-3M > 100 µM | T47D > 100 µM | UACC-62 > 100 µM | COLO 205 > 100 µM | IGROV-1 > 100 µM | NCI-H23 > 100 µM | SNB-19 > 100 µM | DU-145 > 100 µM | PC-3 > 100 µM | SK-MEL-2 > 100 µM | SK-OV-3 > 100 µM | M14 > 100 µM | Hs-578T > 100 µM | LOX IMVI > 100 µM | MDA-N > 100 µM | NCI-H460 > 100 µM | MDA-MB-231 > 100 µM | SK-MEL-5 > 100 µM | SF-268 > 100 µM

Fc1ccc2c(c1)nc1n2C(c2c(F)cccc2F)SC1 (stereo not given)
inactive: KM12 18.2 µM | Malme-3M 55.1 µM | T47D 31 µM | UACC-62 45.5 µM | COLO 205 80.2 µM | IGROV-1 64.9 µM | NCI-H23 34 µM | SNB-19 45.4 µM | DU-145 > 100 µM | PC-3 51.6 µM | SK-MEL-2 > 100 µM | SK-OV-3 59.2 µM | M14 49.8 µM | Hs-578T 47 µM | LOX IMVI 45.7 µM | MDA-N 28.2 µM | NCI-H460 37 µM | MDA-MB-231 91.8 µM | SK-MEL-5 21.8 µM | SF-268 53.2 µM
